Patent publication US4496546A, “Erythromycin D and esters thereof” (Pfizer Inc., priority 1982, dated 1985)
Values after ≈ are worked out from the molar mass of the structure shown. Read-outs that look alike come from different tables or passages of the source.

What was measured:
[1] = absorption via the oral route; format: in vivo
Neiss. Sicca 000 = experiment: in vitro MIC, tube serial dilution, 24 hour incubation; format: cell-based
Procedure: (§1) Table I summarizes the results of in vitro MIC (minimum inhibitory concentration) tests. For this standard test, each organism is inoculated into a series of tubes containing nutrient medium and serially diluted concentrations of the antibiotic. The MIC is the lowest concentration of antibiotic which prevents growth of the microorganism over the 24 hour incubation test period.

Staph. aureus 400 = experiment: as above; format: cell-based
Procedure: as §1

E. Coli 470 = experiment: as above; format: cell-based; conditions: Escherichia coli
Procedure: as §1

Staph. aureus 052 = experiment: as above; format: cell-based
Procedure: as §1

Staph. epid. 111 = experiment: as above; format: cell-based
Procedure: as §1

Strep. pyog. 203 = experiment: as above; format: cell-based
Procedure: as §1

Strep. faec. 006 = experiment: as above; format: cell-based
Procedure: as §1

Strep. pneum. 012 = experiment: as above; format: cell-based
Procedure: as §1

Hem. influ. 036 = experiment: as above; format: cell-based
Procedure: as §1

Staph. aureus 005 = experiment: as above; format: cell-based
Procedure: as §1

Hem. influ. 012 = experiment: as above; format: cell-based
Procedure: as §1

Staph aureus 005 = experiment: in vivo oral protection against acute experimental infection in mice; conditions: read-out: PD50
Text: (§2) In determining such activity, acute experimental infections are produced in mice by the intraperitoneal inoculation of the mice with a standardized culture of the test organism suspended in 5 percent hog gastric mucin. Infection severity is standardized so that the mice receive at least one LD100 dose of the organism (LD100 : the minimum inoculum of organism required to consistently kill 100 percent of the infected, nontreated control mice). The test compound is orally administered at various dosage levels to groups of infected mice at 1/2, 4 and 24 hours post infection. At the end of the test, the activity of the mixture is assessed by counting the number of survivors among treated animals at a given dose. Activity is expressed as the percentage of animals which survive at a given dose, or calculated as a PD50 (dose which protects 50% of the animals from infection).

Strep pyogenes 203 = experiment: as above; conditions: Mus musculus, read-out: PD50
Text: as §2

Past. mult. 001 = experiment: in vitro MIC, tube serial dilution, 24 hour incubation; format: cell-based
Procedure: as §1

stability at acid pH = format: physicochemical; conditions: acid pH (2.5 to 5.0); unlike erythromycin A
[2] = test system: Gram-positive and Gram-negative bacteria; experiment: in vitro antibacterial activity (summary statement); format: cell-based; conditions: medium spectrum of Gram-positive and Gram-negative bacteria
Procedure: as §1

sensitive bacteria = experiment: in vivo activity against infections by sensitive bacteria (summary statement); conditions: mice, oral
Text: as §2

[3] = Neiss. Sicca 000, read-out: MIC
[4] = Staphylococcus aureus, 400, 24 h
[5] = Staphylococcus aureus, 24 h, Staph. aureus 052, read-out: MIC
[6] = Staph. epid. 111, read-out: MIC
[7] = Strep. pyog. 203, read-out: MIC
[8] = Strep. faec. 006, read-out: MIC
[9] = Strep. pneum. 012, read-out: MIC
[10] = Staphylococcus aureus, 24 h, Staph. aureus 005, read-out: MIC
[11] = Staphylococcus aureus, mice, Staph aureus 005, oral dosage 1/2, 4 and 24 hours post infection
[12] = mice, Strep pyogenes 203, oral dosage 1/2, 4 and 24 hours post infection
[13] = Staphylococcus aureus, 24 h, Staph. aureus 400, read-out: MIC

Compound | MIC (Neiss. Sicca 000; [3]) | MIC (Staph. aureus 400; [4]) | MIC (E. Coli 470; E. Coli 470, read-out: MIC) | MIC (Staph. aureus 052; [5]) | MIC (Staph. epid. 111; [6]) | MIC (Strep. pyog. 203; [7]) | MIC (Strep. faec. 006; [8]) | MIC (Strep. pneum. 012; [9]) | MIC (Hem. influ. 036; Hem. influ. 036, read-out: MIC) | MIC (Staph. aureus 005; [10]) | MIC (Hem. influ. 012; Hem. influ. 012, read-out: MIC) | ED50 (Staph aureus 005; [11]) | ED50 (Strep pyogenes 203; [12]) | MIC (Staph. aureus 400; [13]) | MIC (Past. mult. 001; Past. mult. 001, read-out: MIC) | MIC (Hem. influ. 012) | MIC (E. Coli 470) | further results
CCC1OC(=O)C(C)C(OC2CC(C)(OC(C)=O)C(OC(C)=O)C(C)O2)C(C)C(OC2OC(C)CC(N(C)C)C2O)C(C)(O)CC(C)C(=O)C(C)C(O)C1C (centres unmarked) [3",4"-Di-O-acetylerythromycin D] | 25 µg/mL (≈ 31.7 µM) | 50 µg/mL (≈ 63.5 µM) | 12.5 µg/mL (≈ 15.9 µM) | 3.12 µg/mL (≈ 3.96 µM) | 0.39 µg/mL (≈ 0.495 µM) | 0.1 µg/mL (≈ 0.127 µM) | 1.56 µg/mL (≈ 1.98 µM) | 0.1 µg/mL (≈ 0.127 µM) | > 50 µg/mL | 1.56 µg/mL (≈ 1.98 µM) | > 50 µg/mL | 27 mg/kg | 15 mg/kg | – | – | – | – | absorption via the oral route [1]: high degree of absorption
CCC(=O)OC1C(C)OC(OC2C(C)C(=O)OC(CC)C(C)C(O)C(C)C(=O)C(C)CC(C)(O)C(OC3OC(C)CC(N(C)C)C3O)C2C)CC1(C)OC(C)=O (centres unmarked) [3"-O-Acetyl-4"-O-propionylerythromycin D] | 12.5 µg/mL (≈ 15.6 µM) | – | 12.5 µg/mL (≈ 15.6 µM) | 0.78 µg/mL (≈ 0.973 µM) | 0.2 µg/mL (≈ 0.249 µM) | 0.05 µg/mL (≈ 0.0623 µM) | 0.78 µg/mL (≈ 0.973 µM) | 0.05 µg/mL (≈ 0.0623 µM) | > 50 µg/mL | 0.39 µg/mL (≈ 0.486 µM) | – | – | – | 12.5 µg/mL (≈ 15.6 µM) | 12.5 µg/mL (≈ 15.6 µM) | 50 µg/mL (≈ 62.3 µM) | – | –
CCC1OC(=O)C(C)C(OC2CC(C)(O)C(OC(C)=O)C(C)O2)C(C)C(OC2OC(C)CC(N(C)C)C2O)C(C)(O)CC(C)C(=O)C(C)C(O)C1C (centres unmarked) [4"-O-Acetylerythromycin D] | 25 µg/mL (≈ 33.5 µM) | – | – | 6.25 µg/mL (≈ 8.38 µM) | 0.78 µg/mL (≈ 1.05 µM) | 0.2 µg/mL (≈ 0.268 µM) | 3.12 µg/mL (≈ 4.18 µM) | 0.39 µg/mL (≈ 0.523 µM) | > 50 µg/mL | 3.12 µg/mL (≈ 4.18 µM) | 50 µg/mL (≈ 67 µM) | 139 mg/kg | 40 mg/kg | > 50 µg/mL | 25 µg/mL (≈ 33.5 µM) | – | 6.25 µg/mL (≈ 8.38 µM) | –
CC[C@H]1OC(=O)[C@H](C)[C@@H](O[C@H]2C[C@@](C)(OC)[C@@H](O)[C@H](C)O2)[C@H](C)[C@@H](O[C@@H]2O[C@H](C)C[C@H](N(C)C)[C@H]2O)[C@](C)(O)C[C@@H](C)C(=O)[C@H](C)[C@@H](O)[C@]1(C)O [Erythromycin A, reference compound] | – | – | – | – | – | – | – | – | – | – | – | 64 mg/kg | 25 mg/kg | – | – | – | – | –
CCC1OC(=O)C(C)C(OC2CC(C)(O)C(O)C(C)O2)C(C)C(OC2OC(C)CC(N(C)C)C2O)C(C)(O)CC(C)C(=O)C(C)C(O)C1C (centres unmarked) [Erythromycin D] | – | 6.25 µg/mL (≈ 8.88 µM) | – | – | – | – | – | – | – | – | – | – | – | – | – | 25 µg/mL (≈ 35.5 µM) | 3.12 µg/mL (≈ 4.43 µM) | stability at acid pH (stability at acid pH): fairly stable; in vitro activity [2]: exhibit in vitro activity; MIC (Neiss. Sicca 000): 6.25 µg/mL (≈ 8.88 µM); MIC (Staph. aureus 052; Staphylococcus aureus, 052, 24 h): 0.39 µg/mL (≈ 0.554 µM); MIC (Staph. epid. 111): 0.2 µg/mL (≈ 0.284 µM); MIC (Past. mult. 001): 6.25 µg/mL (≈ 8.88 µM); MIC (Strep. pyog. 203): 0.025 µg/mL (≈ 0.0355 µM); MIC (Strep. faec. 006): 0.39 µg/mL (≈ 0.554 µM); MIC (Strep. pneum. 012): 0.025 µg/mL (≈ 0.0355 µM); MIC (Hem. influ. 036): 50 µg/mL (≈ 71 µM); MIC (Staph. aureus 005; Staphylococcus aureus, 005, 24 h): 0.39 µg/mL (≈ 0.554 µM); in vivo activity (sensitive bacteria): exhibit in vivo activity; ED50 (Staph aureus 005; Staphylococcus aureus, 005, po): 57 mg/kg; ED50 (Strep pyogenes 203; po): 15 mg/kg
